Among the test systems are DMS-273; 786-0; SNB-75; MCF7; OVCAR-5; PC-3; SK-MEL-28; CAKI-1; SK-MEL-2; MDA-MB-231; SK-OV-3; RXF 393; RPMI-8226; SN12C; DU-145; IGROV-1; COLO 205; MDA-MB-435; TK-10; Malme-3M.
Common to all, as to assay: inhibition of tumour cell growth, NCI panel, 48 h

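Five compound concentrations were applied to cells in 96-well plates for 48 hours; endpoints were derived by simple linear interpolation of the resulting dose-response curve. GI50 marks 50% less growth.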 Active and inactive are the calls of the source. Rule as the data show it: active = GI50 up to about 1.1 µM and inactive = higher.

`O=C(CC1(O)C(=O)Nc2c(Cl)cc(Cl)cc21)c1ccc(Br)cc1Br` (stereo not drawn): the GI50 with DMS-273 is 7.05 µM (inactive); in the assay with 786-0, 11.3 µM (inactive); with SNB-75 it was 18.1 µM (inactive); with MCF7 it was 13.2 µM (inactive); in the assay with OVCAR-5, 17.7 µM (inactive); in the assay on PC-3 it was 16.9 µM (inactive). Moreover, the GI50 is 14.3 µM (inactive) in the assay on SK-MEL-28; 4.24 µM (inactive) in the assay with CAKI-1; 15.2 µM (inactive) in the assay on SK-MEL-2; 14.7 µM (inactive) in the assay on MDA-MB-231; 21.5 µM (inactive) in the assay with SK-OV-3; 11.7 µM (inactive) in the assay with RXF 393. Moreover, the GI50 in the assay on RPMI-8226 is 2.75 µM (inactive); with SN12C it was 13.1 µM (inactive); in the assay on DU-145, 16.3 µM (inactive); with IGROV-1 it was 16.6 µM (inactive); in the assay on COLO 205, 7.21 µM (inactive); with MDA-MB-435 it was 12.8 µM (inactive). Besides, the GI50 in the assay with TK-10 was 18.1 µM (inactive); with Malme-3M it was 11.5 µM (inactive).
For `C=C(C)C(=O)OC1CC2=CC(CC3(C)OC3C3OC(=O)C(=C)C13)OC2=O` (stereo not drawn), the GI50 in the assay on DMS-273 was 12.9 µM (inactive); in the assay with 786-0, 7.24 µM (inactive); with SNB-75, 14.7 µM (inactive); in the assay with MCF7, 3.81 µM (inactive); with OVCAR-5, 20 µM (inactive); in the assay on PC-3, 14.7 µM (inactive). Moreover, the GI50 is 12.3 µM (inactive) in the assay on SK-MEL-28; 4.58 µM (inactive) with CAKI-1; 12.9 µM (inactive) with SK-MEL-2; 18.1 µM (inactive) in the assay with MDA-MB-231; 18.8 µM (inactive) in the assay with SK-OV-3; 2.9 µM (inactive) in the assay with RXF 393. Also, the GI50 with SN12C is 13.7 µM (inactive); with DU-145, 23.7 µM (inactive); with IGROV-1, 19.3 µM (inactive); with COLO 205, 2.91 µM (inactive); in the assay with MDA-MB-435 it was 15.2 µM (inactive); in the assay on TK-10 it was 7.73 µM (inactive). The GI50 in the assay on Malme-3M is 4.23 µM (inactive).
Take `Oc1cc(-c2cccc(F)c2)nc2cc3c(cc12)OCO3`: the GI50 was 0.349 µM (active) in the assay with DMS-273; 0.0441 µM (active) in the assay on 786-0; 0.0334 µM (active) in the assay with SNB-75; 0.108 µM (active) with MCF7; 0.345 µM (active) in the assay on OVCAR-5; 0.0473 µM (active) in the assay on PC-3. The GI50 with SK-MEL-28 was 0.0439 µM (active); with CAKI-1 it was 0.0513 µM (active); in the assay with SK-MEL-2, 0.0308 µM (active); in the assay with MDA-MB-231, 0.141 µM (active); in the assay with SK-OV-3, 0.0698 µM (active); with RXF 393, 0.0546 µM (active). In addition, the GI50 is 0.0581 µM (active) in the assay on RPMI-8226; 0.129 µM (active) in the assay on SN12C; 0.0524 µM (active) in the assay with DU-145; 0.102 µM (active) in the assay on IGROV-1; 0.0743 µM (active) in the assay with COLO 205; 0.0112 µM (active) in the assay with MDA-MB-435. In addition, the GI50 in the assay with TK-10 is 0.879 µM (active); with Malme-3M, 0.0454 µM (active).
`CCCN(CCCCC(NC(C)=O)C(=O)NCc1ccccc1)C(=O)N(CCCl)N=O` (stereo not drawn): the GI50 was 72.6 µM (inactive) in the assay with DMS-273; 2.33 µM (inactive) in the assay on 786-0; 27.1 µM (inactive) in the assay on SNB-75; 40 µM (inactive) with MCF7; > 100 µM (inactive) with OVCAR-5; 32.8 µM (inactive) with PC-3. For the same compound, the GI50 in the assay with SK-MEL-28 is > 100 µM (inactive); in the assay on CAKI-1, > 79.8 µM (inactive); with SK-MEL-2, > 100 µM (inactive); in the assay with MDA-MB-231 it was > 100 µM (inactive); in the assay on SK-OV-3, > 100 µM (inactive); with RXF 393, 66.1 µM (inactive). For the same compound, the GI50 in the assay on RPMI-8226 was 98.2 µM (inactive); with SN12C, 58.3 µM (inactive); with DU-145, 27.2 µM (inactive); with IGROV-1, > 92.3 µM (inactive); with COLO 205, > 90.2 µM (inactive); in the assay with MDA-MB-435 it was > 100 µM (inactive). Besides, the GI50 in the assay with TK-10 and in the assay with Malme-3M was > 100 µM (inactive) in each case.
`CCOC(=O)Nc1cc2c(c(N)n1)N=C(c1ccccc1)[C@H](C)N2` [MIVOBULIN ISETHIONATE]: the GI50 in the assay on DMS-273 is < 0.0001 µM (active); with 786-0 it was 0.00215 µM (active); in the assay with SNB-75 it was 0.000215 µM (active); with MCF7, < 0.0001 µM (active); in the assay on OVCAR-5, 23 µM (inactive); in the assay on PC-3, < 0.0001 µM (active). The GI50 in the assay on CAKI-1 was < 0.0001 µM (active); in the assay on SK-MEL-2, < 0.0001 µM (active); in the assay with MDA-MB-231, < 0.0001 µM (active); with SK-OV-3 it was 17.4 µM (inactive); in the assay with RXF 393, < 0.0001 µM (active); with RPMI-8226, 0.000215 µM (active). Further, the GI50 in the assay on SN12C was 0.0475 µM (active); in the assay on DU-145, < 0.0001 µM (active); with IGROV-1, < 0.0001 µM (active); in the assay with COLO 205 it was < 0.0001 µM (active); in the assay with MDA-MB-435, < 0.0001 µM (active); with TK-10 it was 0.00273 µM (active). Moreover, in the assay on Malme-3M, the GI50 is < 0.0001 µM (active).
